In patent US20250228239A1, “MOLECULES HAVING PESTICIDAL UTILITY, AND INTERMEDIATES, COMPOSITIONS, AND PROCESSES, RELATED THERETO” (priority 2024, published 2025) one finds pest or weed control, YFM rating and YFM data, which are given here for 13 compounds.

Holding throughout (format): in vivo
Assay [1] relates to Green Peach Aphid (Myzus persicae, MYZUPE). Description: Bioassays on Green Peach Aphid (GPA), foliar spray on cabbage seedlings. The note with it: 72 h. The procedure, abridged: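 Percent control (Abbott-corrected versus solvent-sprayed plants) comes from live-aphid counts three days after treatment at about 25° C. Test solution at 200 ppm was sprayed to runoff onto both leaf surfaces of cabbage seedlings infested a day earlier with 20-50 aphids; four replicate pots.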

For assay [2], the system named is Cabbage Looper (Trichoplusia ni, TRIPNI). Description: Bioassays on Cabbage Looper (CL), 128-well diet tray assay. The following applies: Trichoplusia ni. The procedure, abridged: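 Activity is mean percent mortality over eight wells of second-instar larvae exposed to diet treated at 50 μg/cm^2 for 5–7 days at 25° C.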
Assay [3] concerns Yellow Fever Mosquito (Aedes aegypti, AEDSAE). The following applies: for YFM rating: Table ABC / ABC-DP rating. The essentials: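 Mortality after 3 days at room temperature is the read-out, scored well by well and converted to a rating. Test molecules came from 4000 ppm stocks in DMSO, further diluted in 90:10 water/acetone, and were exposed to roughly 1-day-old larvae suspended in liver-powder water.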

Assay [4] deals with Beet Armyworm (Spodoptera exigua, LAPHEG). Description: Bioassays on Beet Armyworm (BAW), 128-well diet tray assay. The following applies: Spodoptera exigua. The procedure, abridged: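 Diet-overlay assay: 50 μg/cm^2 compound applied in 90:10 acetone-water to artificial diet, allowed to dry, then infested with 1–5 L2 larvae/well; 8 wells/compound; covered, vented; 25° C., 14:10 L:D, 5–7 d; % mortality per well, averaged.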

The mark [5] stands for this setting: Green Peach Aphid, Table ABC / ABC-DP rating, read-out: GPA rating.
[6] abbreviates: Cabbage Looper, Table ABC / ABC-DP rating, read-out: CL rating.
The mark [7] stands for this setting: Beet Armyworm, Table ABC / ABC-DP rating, read-out: BAW rating.
[8] abbreviates: Green Peach Aphid, rating class, read-out: GPA.
Setting [9] is: Cabbage Looper, rating class, read-out: CL.
Setting [10] is: Yellow Fever Mosquito, rating class.
[11] abbreviates: Beet Armyworm, rating class, read-out: BAW.
Where [12] appears, read: Table ABC: Biological Results, species GPA, read-out: GPA.
[13] abbreviates: Table ABC: Biological Results, species CL, read-out: CL.
Setting [14] is: Table ABC: Biological Results, species YFM.
Setting [15] is: Table ABC: Biological Results, species BAW, read-out: BAW.

Read-outs that look alike come from different tables or passages of the source.

Turning to `Cc1c(Cl)cc(NC(=O)[C@H]2[C@H](c3ccc(F)c(Cl)c3)C2(Cl)Cl)cc1C(=O)NCC(F)(F)F` (relative stereo) [F2042, trans-3-Chloro-5-(2,2-dichloro-3-(3-chloro-4-fluorophenyl)cyclopropane-1-carboxamido)-2-methyl-N-(2,2,2-trifluoroethyl)benzamide], in assay [1] (setting [5]), the pest or weed control at 200 µg/mL fell in the range of 80 to 100%. Moreover, the pest or weed control at 50 µg/cm2 in assay [2] (setting [6]) and in assay [4] (setting [7]) was 50 to 100% each time. For the same compound, in assay [3] (Yellow Fever Mosquito), the YFM rating result is reported as “A (80–100)”.
As for `Nc1cc(NC(=O)c2cc(NC(=O)[C@H]3[C@H](c4ccc(F)c(C(F)(F)F)c4)C3(Cl)Cl)ccc2Cl)c(F)c(F)c1F` [F1740, N-(5-Amino-2,3,4-trifluorophenyl)-2-chloro-5-((1R,3R)-2,2-dichloro-3-(4-fluoro-3-(trifluoromethyl)phenyl)cyclopropane-1-carboxamido)benzamide], the pest or weed control at 200 µg/mL in assay [1] (setting [8]) is 80 to 100%. Moreover, the pest or weed control at 50 µg/cm2 in assay [2] (setting [9]) and in assay [4] (setting [11]) was 50 to 100% throughout. Moreover, the YFM result in assay [3] (setting [10]) is recorded as “A (80–100)”.
For `CCCOC(C)C(=O)Nc1c(F)ccc(NC(=O)c2cc(NC(=O)[C@H]3[C@H](c4ccc(F)c(C(F)(F)F)c4)C3(Cl)Cl)ccc2Cl)c1F` (stereo partly drawn) [F1739, 2-Chloro-5-((1R,3R)-2,2-dichloro-3-(4-fluoro-3-(trifluoromethyl)phenyl)cyclopropane-1-carboxamido)-N-(2,4-difluoro-3-(2-propoxypropanamido)phenyl)benzamide], the pest or weed control at 200 µg/mL in assay [1] (setting [8]) lay in the range of 0 to 80%. Besides, the pest or weed control at 50 µg/cm2 in assay [2] (setting [9]) and in assay [4] (setting [11]) was 50 to 100% throughout. In addition, in assay [3] (setting [10]), the YFM result is “A (80–100)”.
For the compound `CCCC(=O)Nc1c(F)ccc(NC(=O)c2cc(NC(=O)[C@H]3[C@H](c4ccc(Cl)c(Cl)c4)C3(Cl)Cl)ccc2Cl)c1F` [F1473, N-(3-Butyramido-2,4-difluorophenyl)-2-chloro-5-((1R,3R)-2,2-dichloro-3-(3,4-dichlorophenyl)cyclopropane-1-carboxamido)benzamide], in assay [1] (setting [8]), the pest or weed control at 200 µg/mL was in the range of 0 to 80%. For the same compound, the pest or weed control at 50 µg/cm2 in assay [2] (setting [9]) and in assay [4] (setting [11]) was 50 to 100% each time. Also, the YFM entry in assay [3] (setting [10]) is “A (80–100)”.
Turning to `O=C(CNC(=O)c1cc(NC(=O)[C@H]2[C@H](c3cc(Cl)cc(Cl)c3)C2(Cl)Cl)ccc1Cl)NCCC(F)(F)F` (relative stereo) [F2081, trans-2-Chloro-5-(2,2-dichloro-3-(3,5-dichlorophenyl)cyclopropane-1-carboxamido)-N-(2-oxo-2-(3,3,3-trifluoropropylamino)ethyl)benzamide], the pest or weed control at 200 µg/mL in assay [1] (setting [5]) was 80 to 100%. Moreover, the pest or weed control at 50 µg/cm2 in assay [2] (setting [6]) and in assay [4] (setting [7]) was 50 to 100% in each case. Also, the YFM rating entry in assay [3] (Yellow Fever Mosquito) was “A (80–100)”.
As to `CC(C)C(=O)Nc1c(F)ccc(NC(=O)c2cc(NC(=O)[C@H]3[C@H](c4ccc(F)c(C(F)(F)F)c4)C3(Cl)Cl)ccc2Cl)c1F` [F1483, 2-Chloro-5-((1R,3R)-2,2-dichloro-3-(4-fluoro-3-(trifluoromethyl)phenyl)cyclopropane-1-carboxamido)-N-(2,4-difluoro-3-isobutyramidophenyl)benzamide], the pest or weed control at 200 µg/mL in assay [1] (setting [8]) was 0 to 80%. For the same compound, the pest or weed control at 50 µg/cm2 in assay [2] (setting [9]) and in assay [4] (setting [11]) was 50 to 100% each time. Also, the YFM entry in assay [3] (setting [10]) was “A (80–100)”.
Turning to `CCCNC(=O)c1c(F)ccc(NC(=O)[C@H]2[C@H](c3ccc(F)c(Cl)c3)C2(Cl)Cl)c1F` (relative stereo) [F2021, trans-3-(2,2-Dichloro-3-(3-chloro-4-fluorophenyl)cyclopropane-1-carboxamido)-2,6-difluoro-N-propylbenzamide], in assay [1] (setting [5]), the pest or weed control at 200 µg/mL lay within 80 to 100%. Moreover, the pest or weed control at 50 µg/cm2 in assay [2] (setting [6]) and in assay [4] (setting [7]) was 50 to 100% throughout. In addition, the YFM rating entry in assay [3] (Yellow Fever Mosquito) is recorded as “A (80–100)”.
`CC(=O)Nc1c(F)ccc(NC(=O)c2cc(NC(=O)[C@H]3[C@H](c4cc(F)cc(C(F)(F)F)c4)C3(Cl)Cl)ccc2Cl)c1F` [F1708, N-(3-Acetamido-2,4-difluorophenyl)-2-chloro-5-((1R,3R)-2,2-dichloro-3-(3-fluoro-5-(trifluoromethyl)phenyl)cyclopropane-1-carboxamido)benzamide]: in assay [1] (setting [8]), the pest or weed control at 200 µg/mL fell in the range of 80 to 100%. Further, the pest or weed control at 50 µg/cm2 in assay [2] (setting [9]) and in assay [4] (setting [11]) was 50 to 100% throughout. Besides, the YFM entry in assay [3] (setting [10]) is “A (80–100)”.
As for `CN(C(=O)C(F)F)c1c(F)ccc(NC(=O)c2cc(NC(=O)[C@H]3[C@H](c4ccc(F)c(C(F)(F)F)c4)C3(Cl)Cl)ccc2Cl)c1F` [F1386, 2-Chloro-5-((1R,3R)-2,2-dichloro-3-(4-fluoro-3-(trifluoromethyl)phenyl)cyclopropane-1-carboxamido)-N-(3-(2,2-difluoro-N-methylacetamido)-2,4-difluorophenyl)benzamide], the pest or weed control at 200 µg/mL in assay [1] (setting [12]) lay within 0 to 80%. Also, the pest or weed control at 50 µg/cm2 in assay [2] (setting [13]) and in assay [4] (setting [15]) was 50 to 100% in each case. Besides, the YFM entry in assay [3] (setting [14]) is on record as “A (80–100)”.
`O=C(NCC(F)(F)F)c1c(Cl)ccc(NC(=O)[C@H]2[C@H](c3ccc(F)c(Cl)c3)C2(Cl)Cl)c1Cl` (relative stereo) [F2020, trans-2,6-Dichloro-3-(2,2-dichloro-3-(3-chloro-4-fluorophenyl)cyclopropane-1-carboxamido)-N-(2,2,2-trifluoroethyl)benzamide]: the pest or weed control at 200 µg/mL in assay [1] (setting [5]) is 0 to 80%. The pest or weed control at 50 µg/cm2 in assay [2] (setting [6]) and in assay [4] (setting [7]) was 50 to 100% in each case. In assay [3] (Yellow Fever Mosquito), the YFM rating entry was “A (80–100)”.
`O=C(NCC(F)(F)F)c1c(F)ccc(NC(=O)[C@H]2[C@H](c3ccc(F)c(Cl)c3)C2(Cl)Cl)c1F` (relative stereo) [F2017, trans-3-(2,2-Dichloro-3-(3-chloro-4-fluorophenyl)cyclopropane-1-carboxamido)-2,6-difluoro-N-(2,2,2-trifluoroethyl)benzamide]: the pest or weed control at 200 µg/mL in assay [1] (setting [5]) is 80 to 100%. Also, the pest or weed control at 50 µg/cm2 in assay [2] (setting [6]) and in assay [4] (setting [7]) was 50 to 100% each time. In addition, the YFM rating entry in assay [3] (Yellow Fever Mosquito) is on record as “A (80–100)”.
As for `O=C(Nc1c(F)ccc(NC(=O)C(F)F)c1F)c1cc(NC(=O)[C@H]2[C@H](c3cc(Cl)cc(Cl)c3)C2(Cl)Cl)ccc1Cl` [F1241, 2-Chloro-5-((1R,3R)-2,2-dichloro-3-(3,5-dichlorophenyl)cyclopropane-1-carboxamido)-N-(3-(2,2-difluoroacetamido)-2,6-difluorophenyl)benzamide], the pest or weed control at 200 µg/mL in assay [1] (setting [12]) was in the range of 80 to 100%. Moreover, the pest or weed control at 50 µg/cm2 in assay [2] (setting [13]) and in assay [4] (setting [15]) was 50 to 100% in each case. Besides, the YFM entry in assay [3] (setting [14]) is recorded as “A (80–100)”.
With `Nc1c(F)ccc(NC(=O)c2cc(NC(=O)[C@H]3[C@H](c4ccc(Cl)c(C(F)(F)F)c4)C3(Cl)Cl)ccc2Cl)c1F` (relative stereo) [F1079, trans-N-(3-Amino-2,4-difluorophenyl)-2-chloro-5-(2,2-dichloro-3-(4-chloro-3-(trifluoromethyl)phenyl)cyclopropane-1-carboxamido)benzamide], in assay [1] (setting [12]), the pest or weed control at 200 µg/mL was in the range of 80 to 100%. Further, the pest or weed control at 50 µg/cm2 in assay [2] (setting [13]) and in assay [4] (setting [15]) was 50 to 100% throughout. Further, the YFM entry in assay [3] (setting [14]) is given as “A (80–100)”.
